Measured values: PubChem BioAssay (NCI)
Values joined by “and” are separate entries in the source; they are usually repeats but may differ in a detail not shown here. Equal values may be shown once.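 Results reflect a 48-hour exposure of cells in 96-well plates to compound at five concentrations. GI50: concentration for 50% inhibition of growth. Definition used: TGI = concentration required for complete inhibition of growth.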

Legend:
Assay in all cases: growth of human tumour cells (NCI), 48 h
KM20L2 colon = test system: KM20L2 colon
HOP-18 NSCLC = test system: HOP-18 NSCLC
DMS 273 small cell lung = test system: DMS 273 small cell lung
LXFL 529 NSCLC = test system: LXFL 529 NSCLC
RXF-631 renal = test system: RXF-631 renal
M19-MEL melanoma = test system: M19-MEL melanoma
DMS 114 small cell lung = test system: DMS 114 small cell lung
XF 498 CNS = test system: XF 498 CNS
MDA-N = test system: MDA-N

Compound: COc1ccc(C[C@]23CCC(=O)N2CCc2cc(OC)c(O)cc23)cc1O
- TGI (KM20L2 colon): > 100 µM
- TGI (HOP-18 NSCLC): > 100 µM
- TGI (DMS 273 small cell lung): > 100 µM
- TGI (LXFL 529 NSCLC): > 100 µM
- TGI (RXF-631 renal): > 100 µM
- TGI (M19-MEL melanoma): > 100 µM
- TGI (DMS 114 small cell lung): > 100 µM

Compound: COc1ccccc1NC(=O)C1=C(C)NC(C)=C(C(=O)Nc2ccccc2OC)C1c1ccccc1Cl
- TGI (KM20L2 colon): > 100 µM
- TGI (HOP-18 NSCLC): > 100 µM
- TGI (DMS 273 small cell lung): > 100 µM
- TGI (LXFL 529 NSCLC): > 100 µM
- TGI (RXF-631 renal): > 100 µM
- TGI (XF 498 CNS): > 100 µM
- TGI (M19-MEL melanoma): > 100 µM
- TGI (DMS 114 small cell lung): > 100 µM

Compound: O=C(O)CCSC(=O)Nc1cccc2ccccc12
- TGI (KM20L2 colon): > 100 µM
- TGI (HOP-18 NSCLC): > 100 µM
- TGI (DMS 273 small cell lung): > 100 µM
- TGI (LXFL 529 NSCLC): > 100 µM
- TGI (RXF-631 renal): > 100 µM
- TGI (XF 498 CNS): > 100 µM
- TGI (M19-MEL melanoma): > 100 µM
- TGI (DMS 114 small cell lung): > 100 µM

Compound: CC[O-].CC[O-].O=C([CH-]C(=O)c1ccccc1)CCCCCCC(=O)[CH-]C(=O)c1ccccc1.[Ti+4]
- GI50 (KM20L2 colon): > 100 µM
- TGI (KM20L2 colon): > 100 µM
- GI50 (HOP-18 NSCLC): > 100 µM
- TGI (HOP-18 NSCLC): > 100 µM
- GI50 (DMS 273 small cell lung): > 100 µM
- TGI (DMS 273 small cell lung): > 100 µM
- GI50 (LXFL 529 NSCLC): > 100 µM
- TGI (LXFL 529 NSCLC): > 100 µM
- GI50 (XF 498 CNS): > 100 µM
- TGI (XF 498 CNS): > 100 µM
- GI50 (M19-MEL melanoma): > 100 µM
- TGI (M19-MEL melanoma): > 100 µM

Compound: O=S(=O)(O)n1ccnc1 (tested in a mixture with another compound)
- TGI (MDA-N): > 100 µM

Compound: FC(F)(F)c1cc(NC(=S)N2c3ccccc3-n3cccc3C2c2cccnc2)cc(C(F)(F)F)c1 (stereo unspecified)
- GI50 (MDA-N): 11.6 µM
- TGI (MDA-N): 32.5 µM

Compound: CN=C1CN=C(OP(=O)(N2CCOCC2)N2CCOCC2)c2cc(Cl)ccc2N1
- TGI (KM20L2 colon): > 100 µM
- TGI (HOP-18 NSCLC): > 100 µM
- TGI (DMS 273 small cell lung): > 100 µM
- TGI (LXFL 529 NSCLC): > 100 µM
- TGI (RXF-631 renal): > 100 µM
- TGI (XF 498 CNS): > 100 µM
- TGI (M19-MEL melanoma): > 100 µM
- TGI (DMS 114 small cell lung): > 100 µM

Compound: O=C(O)CN1C(=O)CN=C(c2ccccn2)c2cc(Cl)ccc21
- TGI (MDA-N): > 100 µM

Compound: COc1ccc(-c2oc3c(OC)c(OC)c(OC)c(O)c3c(=O)c2OC)cc1O
- TGI (KM20L2 colon): 26.1 µM
- TGI (DMS 273 small cell lung): 16.3 µM
- GI50 (LXFL 529 NSCLC): < 0.01 µM
- TGI (LXFL 529 NSCLC): > 100 µM
- TGI (RXF-631 renal): 35.8 µM
- TGI (XF 498 CNS): 0.68 µM
- GI50 (M19-MEL melanoma): < 0.01 µM
- TGI (M19-MEL melanoma): 31.8 µM
- TGI (DMS 114 small cell lung): 0.0784 µM

Compound: Cc1ccc(/C=N/NS(=O)(=O)c2ccccc2)cc1C
- TGI (KM20L2 colon): > 100 µM
- TGI (HOP-18 NSCLC): > 100 µM
- TGI (DMS 273 small cell lung): > 100 µM
- TGI (LXFL 529 NSCLC): > 100 µM
- TGI (XF 498 CNS): > 100 µM
- TGI (M19-MEL melanoma): > 100 µM
- TGI (DMS 114 small cell lung): > 100 µM

Compound: CC(=O)[CH-]C(C)=O.CC(=O)[CH-]C(C)=O.[Cl-].[O]=[V]
- GI50 (HOP-18 NSCLC): > 100 µM
- TGI (HOP-18 NSCLC): > 100 µM
- GI50 (DMS 273 small cell lung): 20.9 µM
- TGI (DMS 273 small cell lung): 39.7 µM
- GI50 (LXFL 529 NSCLC): 47.5 µM
- TGI (LXFL 529 NSCLC): > 100 µM
- GI50 (XF 498 CNS): 17.8 µM
- TGI (XF 498 CNS): 66 µM
- GI50 (DMS 114 small cell lung): 35.8 µM
- TGI (DMS 114 small cell lung): > 100 µM

Compound: COc1cccc(C=O)c1[O-].COc1cccc(C=O)c1[O-].[Zn+2]
- TGI (KM20L2 colon): > 100 µM
- TGI (HOP-18 NSCLC): > 100 µM
- TGI (DMS 273 small cell lung): > 100 µM
- TGI (LXFL 529 NSCLC): > 100 µM
- TGI (M19-MEL melanoma): 98.6 µM
- TGI (DMS 114 small cell lung): > 100 µM

Compound: CC(=O)OC1=C2CC[C@@H]3C(CC[C@@]4(C)C3CC[C@@H]4OC(C)=O)[C@@]2(C)CC(C#N)C1=O (stereo partly specified)
- TGI (KM20L2 colon): > 100 µM
- TGI (DMS 273 small cell lung): 74 µM
- TGI (LXFL 529 NSCLC): 91.3 µM
- TGI (XF 498 CNS): 80.8 µM
- TGI (DMS 114 small cell lung): 37.1 µM

Compound: C=CCOc1ccc(N)c([N+](=O)[O-])c1
- TGI (MDA-N): > 100 µM

Compound: COc1ccccc1NC(=O)CC(=O)n1nc(C)c(N=Nc2ccccc2Cl)c1C
- TGI (KM20L2 colon): > 100 µM
- TGI (HOP-18 NSCLC): > 100 µM
- TGI (DMS 273 small cell lung): > 100 µM
- TGI (LXFL 529 NSCLC): > 100 µM
- TGI (RXF-631 renal): > 31.6 µM
- TGI (XF 498 CNS): > 100 µM
- TGI (MDA-N): > 31.6 µM
- TGI (M19-MEL melanoma): > 100 µM
- TGI (DMS 114 small cell lung): > 100 µM

Compound: CS(=O)(=O)NNS(=O)(=O)c1ccc(F)cc1
- TGI (KM20L2 colon): > 100 µM
- TGI (DMS 273 small cell lung): > 100 µM
- TGI (LXFL 529 NSCLC): > 100 µM
- TGI (RXF-631 renal): > 100 µM
- TGI (M19-MEL melanoma): > 100 µM
- TGI (DMS 114 small cell lung): > 100 µM

Compound: COc1c(C)c(OC)c(C(=O)CC(C)C)c(OC)c1C
- TGI (MDA-N): > 100 µM

Compound: CCOC(=O)c1c(-c2ccc(OC)c(O)c2)c(C#N)c(=S)n(C2OC(COC(C)=O)C(OC(C)=O)C(OC(C)=O)C2OC(C)=O)c1-c1ccccc1 (stereo unspecified)
- GI50 (MDA-N): 16.8 µM and > 100 µM
- TGI (MDA-N): 37.8 µM and > 100 µM

Compound: NNc1nc2ccccc2o1
- TGI (MDA-N): > 100 µM

Compound: CCOC(=O)CNC(=O)OCc1ccccc1
- TGI (DMS 273 small cell lung): > 100 µM
- TGI (LXFL 529 NSCLC): > 100 µM
- TGI (RXF-631 renal): > 100 µM
- TGI (XF 498 CNS): > 100 µM
- TGI (M19-MEL melanoma): > 100 µM
- TGI (DMS 114 small cell lung): > 100 µM

Compound: CO/C=C(\Br)c1ccc2c(c1)OCO2
- TGI (DMS 273 small cell lung): > 100 µM
- TGI (LXFL 529 NSCLC): > 100 µM
- TGI (RXF-631 renal): > 100 µM
- TGI (XF 498 CNS): > 100 µM
- TGI (M19-MEL melanoma): > 100 µM
- TGI (DMS 114 small cell lung): > 100 µM
